Publication PMC9789040, “Inhibition of triple negative breast cancer-associated inflammation and progression by N- acylethanolamine acid amide hydrolase (NAAA)” (Scientific Reports, 2022)

Biological target: T1, N-acylethanolamine acid amidase (NAAA) (Homo sapiens, UniProt Q02083)
T1 construct: purified human NAAA
T1 sequence (Q02083 29-125): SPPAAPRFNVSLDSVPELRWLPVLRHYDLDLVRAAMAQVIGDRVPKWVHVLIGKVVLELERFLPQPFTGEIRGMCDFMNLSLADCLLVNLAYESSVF
T1 sequence (Q02083 126-359): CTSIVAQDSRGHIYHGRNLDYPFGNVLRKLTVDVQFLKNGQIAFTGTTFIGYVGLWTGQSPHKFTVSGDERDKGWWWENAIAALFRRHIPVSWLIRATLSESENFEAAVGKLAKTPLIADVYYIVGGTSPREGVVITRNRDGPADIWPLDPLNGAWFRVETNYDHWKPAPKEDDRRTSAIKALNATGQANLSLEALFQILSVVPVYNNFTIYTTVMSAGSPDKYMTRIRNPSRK
Experiment: fluorogenic PAMCA hydrolysis assay with purified human NAAA, […] min preincubation, 8-point curve
Assay type: biochemical

COc1ccc(-c2ccc(COC3CC(N=C=S)C3)nc2)cc1F (stereo not shown) [AM11095]
IC50: 20 nM
